In brackets after ≈: the same amount, converted by molar mass. Like-named read-outs stand apart in the source and are kept apart here.
How the values were obtained:
[1] = test system: ESBL-producing strain of Escherichia coli, having an associated resistance to the aminoglycosides (EcR3); test: MIC of the compounds used alone, microdilution in a liquid medium (CLSI); assay type: cell-based; details: Escherichia coli, antibiotic alone (second value of cell), read-out: Initial MICs
From the text: (§1) The MICs of the antibiotics were previously defined for each strain, by the method of microdilution in a liquid medium (CLSI (Clinical and Laboratory Standards Institute), 2003).

[2] = test system: Escherichia coli strain ATCC 25922 (wild type); test: as above; assay type: cell-based; details: Escherichia coli, ATCC25922; antibiotic alone (second value of cell); E. coli ATCC 25922; read-out: Initial MICs
From the text: as §1

[3] = test system: Pseudomonas aeruginosa strain ATCC 27853 (wild type); test: as above; assay type: cell-based; details: Pseudomonas aeruginosa, ATCC27853; antibiotic alone (second value of cell); P. aeruginosa ATCC 27853; read-out: MIC
From the text: as §1

[4] = test system: Pseudomonas aeruginosa strain PaR3; test: as above; assay type: cell-based; details: Pseudomonas aeruginosa, antibiotic alone (second value of cell), read-out: MIC
From the text: as §1

[5] = test system: Staphylococcus aureus strain ATCC 29213 (wild type); test: as above; assay type: cell-based; details: Staphylococcus aureus
From the text: as §1

[6] = test system: cephalosporinase-hyperproducing strain of Escherichia coli (EcR2); test: as above; assay type: cell-based; details: Escherichia coli, antibiotic alone (second value of cell), read-out: Initial MICs
From the text: as §1

[7] = test system: mucoid strain of Pseudomonas aeruginosa PaR5; test: as above; assay type: cell-based; details: Pseudomonas aeruginosa, antibiotic alone (second value of cell), read-out: MIC
From the text: as §1

[8] = test system: penicillinase-producing strain of Escherichia coli without associated resistance (EcR1); test: as above; assay type: cell-based; details: Escherichia coli, antibiotic alone (second value of cell), read-out: Initial MICs
From the text: as §1

[9] = test system: Pseudomonas aeruginosa strain PaR2; test: microbe, parasite or virus in culture; assay type: cell-based; details: Pseudomonas aeruginosa, antibiotic alone (second value of cell), read-out: MIC
From the text: as §1

[10] = test system: EcR1: Penicillinase-Producing Escherichia coli without Associated Resistance; test: Antibiogram, MIC by the VITEK 2 system; assay type: cell-based; details: for MIC: Escherichia coli
Procedure: (§2) 5.1 EcR1: Penicillinase-Producing Escherichia coli without Associated Resistance The bacterial and antibiogramidentification is carried out by the VITEK 2 system (bioMérieux) and by the disk diffusion technique.

[11] = test system: EcR1: Penicillinase-Producing Escherichia coli without Associated Resistance; test: Antibiogram by the disk diffusion technique; assay type: cell-based; details: Table A1
Procedure: as §2

[12] = test system: EcR3: ESBL-Producing Escherichia coli; test: Antibiogram by the disk diffusion technique; assay type: cell-based; details: for Diameter: Table C1; for diameter in mm: Table C2
Procedure: The bacterial and antibiogramidentification is carried out by the VITEK 2 system (bioMerieux) and by the disk diffusion technique

[13] = test system: PaR3: Pseudomonas aeruginosa; test: Antibiogram, MIC by the VITEK 2 system; assay type: cell-based
Procedure: (§3) The bacterial and antibiogramidentification is carried out by the VITEK 2 system (bioMérieux)

[14] = test system: PaR5: Pseudomonas aeruginosa; test: Antibiogram by the disk diffusion technique; assay type: cell-based; details: for diameter in mm: disk diffusion inhibition diameter, strain PaR5
Procedure: (§4) The bacterial and antibiogramidentification is carried out by the VITEK 2 system (bioMérieux) and by the disk diffusion technique

[15] = test system: PaR2: Pseudomonas aeruginosa; assay type: cell-based; details: for Diameter: Table G1; for diameter in mm: Table G2
Procedure: as §4

[16] = MIC of the compounds used alone, microdilution in a liquid medium (CLSI); assay type: cell-based, Staphylococcus aureus; details: Staphylococcus aureus, MRSA
From the text: as §1

[17] = test system: MRSA strain having a resistance to the aminoglycosides and fluoroquinolones (SaR3); test: as above; assay type: cell-based, Staphylococcus aureus; details: Staphylococcus aureus, MRSA
From the text: as §1

[18] = test system: MRSA strain without associated resistance (SaR1); test: as above; assay type: cell-based, Staphylococcus aureus; details: Staphylococcus aureus, MRSA
From the text: as §1

[19] = test system: SaR1: Meticillin-Resistant Staphylococcus aureus without Associated Resistance; test: Antibiogram, MIC by the VITEK 2 system; assay type: cell-based; details: SaR1
Procedure: as §3

[20] = test system: SaR3: Meticillin-Resistant Staphylococcus aureus; test: Antibiogram by the disk diffusion technique; assay type: cell-based
Procedure: as §4

[21] = test system: SaR4: Meticillin-Resistant Staphylococcus aureus; test: Antibiogram, MIC by the VITEK 2 system; assay type: cell-based; details: SaR4; for MIC: Staphylococcus aureus, read-out: MIC
Procedure: as §4

[22] = test system: Escherichia coli, Staphylococcus aureus and Pseudomonas aeruginosa strains; test: Chessboard technique, summary statements over all strains and combinations tested; assay type: cell-based; details: strain not stated
From the text: 1.3. Procedure: Chessboard Technique
The same procedure is followed for the Cx1. […] Thus 64 ATB/Cx1 combinations are obtained.
The FIC (Fractional Inhibitory Concentration Index) value is defined by the following formula: […]
When FIC≦0.5, there is a synergistic effect between antibiotic A and antibiotic B.
When 0.5<FIC≦1, there is an additive effect between antibiotic A and antibiotic B.
When 1<FIC≦4, there is an indifferent effect between antibiotic A and antibiotic B.
When FIC>4, there is an antagonistic effect between antibiotic A and antibiotic B.
For each strain and each antibiotic/Cx1 combination, the experiments were repeated a minimum of 3 times.

[23] = test system: SaR1: Meticillin-Resistant Staphylococcus aureus without Associated Resistance; test: Antibiogram, inhibition diameter (Table D1); assay type: cell-based
Procedure: as §3

[24] = test system: EcR2: Cephalosporinase-Hyperproducing Strain of Escherichia coli; test: Antibiogram, MIC by the VITEK 1 system; assay type: cell-based; details: Escherichia coli, read-out: MIC
Procedure: The bacterial and antibiogramidentification is carried out by the VITEK 1 system (bioMérieux) and by the disk diffusion technique

[25] = ATCC29213, antibiotic alone (second value of cell), S. aureus ATCC 29213, read-out: Initial MICs
[26] = EcR1, Table A2, read-out: MIC mg/L (diameter in mm)
[27] = EcR1, VITEK 2, Table A1, read-out: MIC
[28] = Pseudomonas aeruginosa, Table H2, read-out: MIC
[29] = antibiotic alone (second value of cell), SaR4, read-out: MIC
[30] = antibiotic alone (second value of cell), SaR3, read-out: MIC
[31] = antibiotic alone (second value of cell), SaR1, read-out: MIC

Structure (SMILES): NCC[C@H](O)C(=O)N[C@@H]1C[C@H](N)[C@@H](O[C@H]2O[C@H](CN)[C@@H](O)[C@H](O)[C@H]2O)[C@H](O)[C@H]1O[C@H]1O[C@H](CO)[C@@H](O)[C@H](N)[C@H]1O [Amikacin]
- MIC [1]: 1 µg/mL
- MIC [2]: 0.25 µg/mL
- MIC [3]: 0.5 µg/mL
- MIC [4]: 1 µg/mL
- MIC [5, 25]: 1 mg/L
- MIC [6]: 0.5 µg/mL
- MIC [7]: 0.5 µg/mL
- MIC [8]: 0.25 µg/mL
- MIC [9]: 1 µg/mL (≈ 1.71 µM)
- CA-SFM Interpretation ([10]; EcR1, MIC against Cc CA-SFM 2011): Susceptible
- CLSI Interpretation ([10]; EcR1, MIC against Cc CLSI 2011): Susceptible
- EUCAST Interpretation ([10]; EcR1, MIC against Cc EUCAST 2011): Susceptible
- Results ([10]; EcR1, interpretation of the MIC, Table A1): Susceptible
- MIC [10, 26]: ≤ 2 mg/L
- MIC [10, 27]: ≤ 2 mg/L
- Diameter ([11]; EcR1, disk diffusion): 19 mm
- Results ([11]; EcR1, interpretation of the diameter against Dmin Dmax): Susceptible
- CA-SFM Interpretation ([12]; Cd CA-SFM 2011): Susceptible
- CLSI Interpretation ([12]; Cd CLSI 2011): Susceptible
- EUCAST Interpretation ([12]; Cd EUCAST 2011): Susceptible
- Diameter [12]: 17 mm
- Results ([12]; Table C1, against Dmin Dmax): Susceptible
- diameter in mm [12]: 17 mm
- CA-SFM Interpretation ([13]; Cc CA-SFM 2011): Susceptible
- CLSI Interpretation ([13]; Cc CLSI 2011): Susceptible
- EUCAST Interpretation ([13]; Cc EUCAST 2011): Susceptible
- MIC [13, 28]: 4 µg/mL (≈ 6.83 µM)
- MIC ([13]; Table H1): 4 µg/mL (≈ 6.83 µM)
- Results ([13]; Table H1): Susceptible
- Diameter ([14]; PaR5, Table I1): 27 mm
- Results ([14]; PaR5, Table I1, against Dmin-Dmax): Susceptible
- diameter in mm [14]: 27 mm
- CA-SFM Interpretation ([14]; disk diffusion, PaR5, versus critical diameter CA-SFM 2011): Susceptible
- CLSI Interpretation ([14]; disk diffusion, PaR5, versus critical diameter CLSI 2011): Susceptible
- EUCAST Interpretation ([14]; disk diffusion, PaR5, versus critical diameter EUCAST 2011, for ** antibiotics the disk load differs and the EUCAST interpretation is not applicable): Susceptible
- CA-SFM Interpretation ([15]; Cd CA-SFM 2011): Susceptible
- CLSI Interpretation ([15]; Cd CLSI 2011): Susceptible
- EUCAST Interpretation ([15]; Cd EUCAST 2011): Susceptible
- Diameter [15]: 22 mm
- Results ([15]; Table G1, against Dmin-Dmax): Susceptible
- diameter in mm [15]: 22 mm

Structure (SMILES): CC(=O)O[C@H]1C[C@@]2(C)[C@@H](C[C@@H](O)[C@H]3[C@@]4(C)CC[C@@H](O)[C@@H](C)[C@@H]4CC[C@@]32C)/C1=C(\CCC=C(C)C)C(=O)O [Fusidic acid]
- MIC [5, 25]: 2 mg/L
- MIC [16, 29]: 4 µg/mL
- MIC [17, 30]: 0.25 µg/mL
- MIC [18, 31]: 0.5 µg/mL
- CA-SFM Interpretation ([19]; Cc CA-SFM 2011): Susceptible
- EUCAST Interpretation ([19]; Cc EUCAST 2011): Susceptible
- Results ([19]; Table D1, from MIC): Susceptible
- MIC mg/L ([19]; Table D2): ≦0.5 mg/L
- MIC ([19]; Staphylococcus aureus, Table D1, read-out: MIC): ≤ 0.5 µg/mL
- CA-SFM Interpretation ([20]; Cd CA-SFM 2011): Susceptible
- EUCAST Interpretation ([20]; Cd EUCAST 2011): Susceptible
- Diameter ([20]; Table E1): 29 mm
- Results ([20]; Table E1, against Dmin Dmax): Susceptible
- diameter in mm ([20]; Table E2): 29 mm
- Results ([21]; Table F1, MIC): Susceptible
- CA-SFM Interpretation ([21]; from MIC, Cc CA-SFM 2011): Susceptible
- EUCAST Interpretation ([21]; from MIC, Cc EUCAST 2011): Susceptible
- MIC ([21]; Table F1): ≤ 1 µg/mL
- MIC ([21]; Table F2, MIC): ≤ 1 µg/mL
- interaction between the antibiotic and Cx1 [22]: synergism
- Diameter [23]: 28 mm
- Results ([23]; from diameter, against Dmin Dmax): Susceptible

Structure (SMILES): C[C@@H](O)[C@H]1C(=O)N2C(C(=O)O)=C(SCCN=CN)C[C@H]12 [Imipenem]
- MIC [1]: 0.125 µg/mL
- MIC [2]: 0.125 µg/mL
- MIC [3]: 2 µg/mL
- MIC [4]: 32 µg/mL
- MIC [5, 25]: 0.015 mg/L
- MIC [6]: 0.125 µg/mL
- MIC [7]: 2 µg/mL
- MIC [8]: 0.125 µg/mL
- MIC [16, 29]: 2 µg/mL
- MIC [17, 30]: 0.25 µg/mL
- MIC [18, 31]: 0.25 µg/mL
- MIC [9]: 2 µg/mL (≈ 6.68 µM)
- MIC [10, 26]: ≤ 0.5 mg/L
- MIC [10, 27]: ≤ 1 mg/L
- MIC ([24]; EcR2, VITEK 1, Table B1): ≤ 4 µg/mL
- MIC ([24]; EcR2, Table B2, MIC): ≤ 0.5 µg/mL
- Diameter [12]: 27 mm
- diameter in mm [12]: 27 mm
- MIC [13, 28]: ≥ 16 µg/mL
- MIC ([13]; Table H1): ≧16
- Diameter ([14]; PaR5, Table I1): 25 mm
- diameter in mm [14]: 25 mm
- Diameter [15]: 27 mm
- diameter in mm [15]: 27 mm

Structure (SMILES): [H]/N=C(/N)N[C@H]1[C@H](O)[C@@H](O)[C@H](O[C@@H]2O[C@@H](C)[C@](O)(C=O)[C@H]2O[C@@H]2O[C@@H](CO)[C@H](O)[C@@H](O)[C@@H]2NC)[C@@H](N/C(N)=N\[H])[C@@H]1O [Streptomycin]
- MIC [5, 25]: 4 mg/L
- MIC [16, 29]: 4 µg/mL
- MIC [17, 30]: 4 µg/mL
- MIC [18, 31]: 4 µg/mL
- interaction between the antibiotic and Cx1 [22]: synergism

Structure (SMILES): CN(C)c1cc(NC(=O)CNC(C)(C)C)c(O)c2c1C[C@H]1C[C@H]3[C@H](N(C)C)C(O)=C(C(N)=O)C(=O)[C@@]3(O)C(O)=C1C2=O [Tigecycline]
- MIC ([5]; ATCC29213, read-out: Initial MICs (mg/L)): 0.25 mg/L
- MIC [16]: 0.25 µg/mL
- MIC [17]: 0.25 µg/mL
- MIC [18]: 0.25 µg/mL
- interaction between the antibiotic and Cx1 [22]: synergism

Source: US20140066365A1, “USE OF CALIXARENES ASSOCIATED WITH AN ANTIBIOTIC IN THE TREATMENT OF BACTERIAL INFECTIONS” (priority 2011, published 2014)
